Reference: patent US20070066681A1, “Pharmaceutical composition for treating fatty liver or hepatic disease” (CHUGAI SEIYAKU KAUSHIKI KAISHA, priority 2003, published 2007)

Legend:
Type in all cases: in vivo
[1] = tested on: apoAI deficiency mice fed with high fat diet; experiment: Same high fat diet test in apoAI deficiency mice; details: B+ high fat diet (0.6% BO-653), only high fat diet: 159±10
Procedure: (§1) Mice expressing excess apoAI (female, 10 to 11 weeks of age, purchased from Jackson Laboratories) were divided into 4 groups of N-animals. The animals of the respective groups were fed with a normal diet, a high fat diet, a 0.6% BO-653-containing high fat diet (hereinafter referred to as B+ high fat diet), and a 0.5% probucol-containing high fat diet (hereinafter referred to as P+ high fat diet).
(§2) The B+high fat diet and the P+ high fat diet were prepared by removing cellulose in amounts corresponding to 0.60% and 0.50%, respectively, from the high fat diet of the above composition, and adding the corresponding amounts of BO-653 and probucol, respectively, to the remaining composition. Probucol is a liposoluble antioxidant.
(§3) Serum was separated from the collected blood, and AST and total cholesterol in the serum were measured with an autoanalyzer (COBS FARAII ROCHE). The entire body of the animal subjected to the laparotomy and blood collection was perfused with physiological saline, and the weight of the liver was measured.
(§4) The same tests were conducted using C57BL/6J mice (female, 6 weeks of age, purchased from CLEA Japan) expressing apolipoprotein AI normally, and apoAI deficiency mice (female, 10 to 11 weeks of age, purchased from Jackson Laboratories) expressing no apolipoprotein AI in contrast to the animals in the present Test Example.

apoE deficiency mice = experiment: Effect of BO-653 in apoE deficiency mice
Procedure: Besides, the effect of BO-653 was tested using apoE deficiency mice. These mice are known as mice showing high blood total cholesterol levels even on a normal diet and, at the same time, show high blood AST even on a normal diet.

[2] = tested on: excess apoAI expressing mice fed with high fat diet; experiment: Action of BO-653 on excess apoAI expressing mice fed with high fat diet (fatty liver and associated hepatic disease); details: for AST (serum) / Liver weight / Total cholesterol (serum): 0.6% BO-653 or 0.5% probucol in high fat diet, 37 weeks of feeding, mean ± standard error; for blood AST compared with high fat diet group (in words) / liver weight compared with high fat diet group (in words): drug-containing high fat diet vs high fat diet only, 37 weeks
From the text: The therapeutic activity of BO-653 against fatty liver and associated hepatic disease was investigated using excess apoAI expressing mice which were fed with a high fat diet to induce fatty liver and further develop hepatic diseases.
ApoAI, i.e., apolipoprotein AI, is an apolipoprotein constituting high density lipoproteins mainly responsible for blood lipid metabolism in rodents including mice. In mice expressing excess apoAI, blood cholesterol levels are originally high. Thus, even if they are fed with a high fat diet for causing the onset of fatty liver, increases in blood cholesterol are relatively small. Such mice are advantageous in that the influence of changes in blood cholesterol on the results of the test need not be considered in evaluating the therapeutic activity of BO-653 against fatty liver and associated hepatic disease.
as §1, §2, §3

[3] = tested on: C57BL/6J mice fed with high fat diet; experiment: Same high fat diet test in C57BL/6J mice expressing apolipoprotein AI normally; details: B+ high fat diet (0.6% BO-653), only high fat diet: 275±31
Procedure: as §1, §2, §3, §4

Row | Compound | blood ASL [1] | blood AST (apoE deficiency mice) | blood total cholesterol values (apoE deficiency mice) | AST (serum) [2] | Liver weight [2] | Total cholesterol (serum) [2] | suppression of AST leakage from liver cells, action relative to probucol ([2]; decline in blood AST, B+ vs P+ high fat diet) | blood AST compared with high fat diet group (in words) [2] | liver weight compared with high fat diet group (in words) [2] | serum AST [3]
1 | CCCCCC1(CCCCC)Cc2c(cc(C(C)(C)C)c(O)c2C(C)(C)C)O1 [BO-653, 4,6-di-t-butyl-5-hydroxy-2,2-di-n-pentyl-2,3-dihydrobenzofuran] | 85±8 | lowered | without involving changes | 96 ± 7 U/L | 2789 ± 106 mg | 353 ± 32 mg/dL | several times as high as that of probucol | greatly lower | significantly less | 181±18
2 | CC(C)(Sc1cc(C(C)(C)C)c(O)c(C(C)(C)C)c1)Sc1cc(C(C)(C)C)c(O)c(C(C)(C)C)c1 [probucol, reference compound] |  |  |  | 218 ± 18 U/L | 2923 ± 185 mg | 203 ± 10 mg/dL |  | not as great as those in the B+ high fat diet group | not as great as those in the B+ high fat diet group | 
